The values that follow come from patent publication US6303621A, “Method for treating cancers using a diiodo thyronine analogue having no significant hormonal activity and a vinca alkaloid and compositions comprising the same” (priority 1999, dated 2001).

“Also recorded” adds a separate entry of the source.

One data set concerns microtubules. The data set is described as follows: Microtubule binding.
The test system of data set [1] is MDA-MB-231 human mammary cancer cells. The data set is described as follows: Cell growth kinetics, median effect and isobologram. It is filed as cell-based. The following applies: 0.75 μM DIME (or DIPE) or 1-2 nM vincristine alone. The protocol: (§1) c. MDA-MB-231 human mammary cancer cells were cultured and treated as reported previously by Mendeleyev et al., International Journal of Oncology 10:689-695 (1997) and Zhen et al., International Journal of Oncology 10:689-695 (1997). For the assay of cell growth kinetics cells, were seeded into 2cm^2 wells (24-well plates) at a density of 8×10^3 /cm^2 at the time of seeding. Vincristine (or vinblastine) and DIME (or DIPE) were added from DMSO dilutions (1-2 μl/ 500 μl culture mediim) either from separate drug solutions or for the construction of median effect plot (FIG. 1) from a pre-made mixture of both drugs (e.g. 0.75 μM DIME+2 nM vincristine) and simultaneous dilutions thereof (Chou et al. Eur. J. Biochem. 115: 207-216 (1981)). The cultures were incubated at 37° C. for 4 days and growth rates, leading to near confluency in drug-free controls, were monitored by cell counting in a haemocytometer after detachment by trypsin treatment Mendeleyev et al., International Journal of Oncology 10:689-695 (1997) and Zhen et al., International Journal of Oncology 10:689-695 (1997). Mathematical analysis of growth curves and median effects and isobolograms were carried out by published procedures (Chou et al. J. Theor. Biol. 65: 345-356 (1977), Chou et al. Eur. J. Biochem. 115: 207-216 (1981) and Chou et al. Adv. in Enzyme Regulation 22:27-55 (1984)) and error bars indicate SD=Σx^2 +L -(Σx)^2 /n where X is the numerical results with n=3-5.
Kinetics of vincristine-DIME interactions: Interpretation of conventional isobolograms, consisting of plots of I50 values of two drugs alone and in combination is valid only if it is proven kinetically that both drugs bind at mutually exclusive sites.
Isobologram analysis of the combined action of DIME and vincristine is illustrated in FIG. 2, and it is evident that the action of the two drugs in combination exceed an additive effect, which is depicted by a concave curve, contrasting with additive action, which would display a straight line connecting the I50 values for each drug alone (dotted line in FIG. 2). […]

For data set [2] the test system is unchanged. Kind of data set: Colony formation (cell killing). Format: cell-based. The note with it: FIG. 4a. As to the method: as §1
e. Colony formation was quantitated as reported by. Each colony of 50 cells is the outgrowth from one cell, plated 10 days before colony counting.

The test system of another data set is tubulin α+β. Kind of data set: Inhibition of tubulin polymerization / assembly of microtubules. Format: biochemical. The note with it: FIG. 4b. As to the method:
The optical tests were performed as reported by Buki et al., International Journal of Oncology 10:911-913 (1997).

The subject of data set [3] is esterase activity in certain tumor cells. The data set is described as follows: Stability to hydrolysis (esterase). The note with it: versus DIME.
The subject of data set [4] is Ras and apoptosis-regulating kineses (ASK1), pathways. The following applies: Wang et al.; cited from earlier work.
Data set [5] relates to metaphase arrest in cancer cells. The data set is described as follows: Metaphase block (mitotic block). The following applies: FIG. 7. Format: cell-based. From the text:
Metaphase was quantitated as reported by Mendeleyev et al., International Journal of Oncology 10:689-695 (1997).
Since vincristine and vinblastine were equivalent here we illustrate only DIME-vinblastine interaction on mitotic block.

In data set [6] the test system is caspase 3. Kind of data set: Caspase 3 in cell-free extracts treated with drugs. It is filed as biochemical. The note with it: results not shown.
In data set [7] the test system is caspase 3. Kind of data set: Caspase 3 assay in drug-treated cells. Format: cell-based, human. The following applies: 0.75 μM DIME or 2 nM vincristine alone, 3 days. As to the method: g. Caspase 3 assay. MDA 231 cells were grown for 3 days in the absence of drugs (control) or in the presence of 0.75 μM DIME, or in the presence of 2 nM vincristine, or in the presence of both drugs. After harvesting and washing the cells with PBS, they were lysed in a lysis buffer (10 mM HEPES, 5 mM DTT, 2 mM EDTA, 1 mM PMSF, 0.1% CHAPS, 20 μg/ml each of aprotinin, leupeptin, pepstatin, pH 7.4), and were frozen and thawed 3 times. […] Each cell extract was incubated at room temperature with and without preincubation with the caspase inactivator DEVD-CMK. The difference of fluorescence was plotted against time. The fluorescence was calibrated with the fluorophore AFC.

The test system of another data set is leukemias. The note with it: in vivo; cited from earlier work.
Data set [8] relates to human cancer cells. The note with it: studies set forth in U.S. Ser. Nos. 08/655,267 and 08/833,272; cited from earlier work.
The conditions of data set [9]: vindesine versus vincristine; cited from earlier work.
The next data set deals with malignant tumor growth. The data set is described as follows: Activity of DIME in vivo (general statement).
The subject of data set [10] is human cancer cells. The data set is described as follows: Cytostatic / cytocidal activity of DIME analogues on human cancer cells. Format: cell-based. The text has this:
Such tests may also screen for the ability of a particular compound to inhibit malignant tumor cell growth in vitro or in vivo or abolish tumorigenicity of malignant cells.
As will be appreciated by the skilled artisan, many varieties of malignant tumor cell cultures and cell lines may be used to screen for activity, including but not limited to HL-60, HT-144, E-ras-20, DU-145, MDA-168, MCF-7, 855-2 and MDA-MB-231. Of course, other in vitro and/or in vivo assays as will be apparent to the skilled artisan to screen for anti-tumor and/or anti-cancer activity may also be employed to identify effective diiodo thyronine analogues useful in the present invention.

Another data set concerns tadpole metamorphosis. The note with it: in vivo; cited from earlier work.
A further data set concerns thyroid. The note with it: rat, in vivo; cited from earlier work.
Data set [11] has as its system non-malignant mouse pituitary adenoma. The following applies: in vivo; cited from earlier work.

On to `COc1ccc(Oc2c(I)cc(C(C)=O)cc2I)cc1` [DIPE, 1-[3,5-diiodo-4-(4'-methoxyphenoxy)-phenyl]-ethanone], for which the Binding to microtubules result with microtubules is given as “bind to microtubules”. The “Growth rate with single drug” value in data set [1] was “do not elicit effects that exceed the SD of average cell growth rates”. Besides, in [2], the “Inhibition of colony formation, DIME versus DIPE” value was “equivalency; also recorded: Equivalent effectivity”. In addition, the “Inhibition of assembly of microtubules, DIME versus DIPE” value in the data set on tubulin α+β is recorded as “equivalency; also recorded: Inhibitory effects”. Further, the Stability to hydrolysis result in [3] is “non-hydrolyzable”.

For `CC(=O)O[C@H]1C(=O)[C@@]2(C)[C@H]([C@H](OC(=O)c3ccccc3)[C@]3(O)C[C@H](OC(=O)[C@H](O)[C@@H](NC(=O)c4ccccc4)c4ccccc4)C(C)=C1C3(C)C)[C@]1(OC(C)=O)CO[C@@H]1C[C@@H]2O` [taxol], the “Activation of Ras and ASK1 pathways” value in data set [4] was “can activate both Ras and apoptosis-regulating kineses (ASK1), pathways”.

In the case of `CC[C@]1(O)C[C@H]2CN(CCc3c([nH]c4ccccc34)[C@@](C(=O)OC)(c3cc4c(cc3OC)N(C=O)[C@H]3[C@@](O)(C(=O)OC)[C@H](OC(C)=O)[C@]5(CC)C=CCN6CC[C@]43[C@@H]65)C2)C1` [vincristine, reference compound], the “Combined action with DIME on metaphase arrest, vincristine versus vinblastine” value in data set [5] was “equivalent”. The “Growth rate with single drug” value in data set [1] was “do not elicit effects that exceed the SD of average cell growth rates; also recorded: fall within SD values”. Moreover, the “Caspase 3 increase in cell-free extracts” value in the data set with caspase 3 [6] is reported as “do not show an increase in caspase 3”. For the same compound, the “Activation of caspase 3, single drug” value in the data set with caspase 3 [7] was “small rate of caspase 3 activity”. The Activity in leukemias entry with leukemias was “most active and useful agent in the treatment of leukemias”.

With `COC(=O)c1cc(I)c(Oc2ccc(OC)cc2Cl)c(I)c1` [Compound 14, Methyl 3,5-diiodo-4-(2'-chloro-4'-methoxyphenoxy)benzoate], in the data set on human cancer cells [8], the “maximal inhibitory action on the growth of human cancer cells as compared to DIME” value was “about 25%”.

With `CC[C@]1(O)C[C@@H]2CN(CCc3c([nH]c4ccccc34)[C@@](C(=O)OC)(c3cc4c(cc3OC)N(C)[C@H]3[C@@](O)(C(N)=O)[C@H](O)[C@]5(CC)C=CCN6CC[C@]43[C@@H]65)C2)C1` [vindesine, 4-desacetyl vinblastine C-3 carboxamide], the Neurotoxicity in humans entry in [9] was “less neurotoxicity than does vincristine”. Besides, in the data set with leukemias, the Activity in leukemias result is listed as “active in certain leukemias”.

Regarding `CCOC(=O)c1cc(I)c(Oc2ccc(OC)cc2)c(I)c1` [Compound 5, Ethyl 3,5-diiodo-4-(4'-methoxyphenoxy)benzoate], the Activity in vivo result with malignant tumor growth is “completely inactive”. In addition, the “Cytostatic and cytocidal activity in cellular assays” value with human cancer cells [10] is “completely inactive”.

With `CCCOc1ccc(Oc2c(I)cc(C(=O)OC)cc2I)cc1` [Compound 3], the Activity in vivo entry in the data set on malignant tumor growth was “completely inactive”. Also, the “Cytostatic and cytocidal activity in cellular assays” value in the data set with human cancer cells [10] was “completely inactive”.

In the case of `NC(Cc1cc(I)c(Oc2cc(I)c(O)c(I)c2)c(I)c1)C(=O)O` (stereo not shown) [thyroxine, reference compound], the “Metabolic or cell differentiating activity (tadpole metamorphosis)” value with tadpole metamorphosis is on record as “induces cell differentiation”. The “Uptake of iodine by the thyroid” value in the data set on thyroid is “suppresses uptake of iodine by the thyroid”. Besides, in data set [11], the “Growth of non-malignant mouse pituitary tumor” value is listed as “depress growth”.

Turning to `CC[C@]1(O)C[C@@H]2CN(CCc3c([nH]c4ccccc34)[C@@](C(=O)OC)(c3cc4c(cc3OC)N(C)[C@H]3[C@@](O)(C(=O)OC)[C@H](OC(C)=O)[C@]5(CC)C=CCN6CC[C@]43[C@@H]65)C2)C1` [vinblastine], the “Combined action with DIME on metaphase arrest, vincristine versus vinblastine” value in data set [5] was “equivalent”.
